System: NSC-34 cells
Test: NSC-34 cell differentiation into mature motor neurons
Assay type: cell-based

SMILES: CC1=C(/C=C/C(C)=C/C=C/C(C)=C/C(=O)O)C(C)(C)CCC1 [RA, retinoic acid]
- time to NSC-34 cell differentiation (1 μM RA): 14 days
- time to NSC-34 cell differentiation (10 μM RA): 7 days
